Measurements taken from article PMC11724075, “Small-molecule-induced ERBB4 activation to treat heart failure” (Nature Communications, 2025).

Tested on: Erbb4-null mice
Experiment: AngII-treated Erbb4-null mice, echocardiography
Type: in vivo, mouse
Details: AngII/EF-1
Text: Floxed Erbb4 mice (Erbb4^f/f; C57BL/6N; 129-Erbb4tm1Fej/Mmucd, MMRRC, #010439-UCD) were crossed with CAGGCre-ER^TM mice (Jackson Laboratory, 004682) containing the Tg(CAG-cre/Esr1*)5Amc transgene that expresses Cre recombinase under the control of a chicken beta actin promoter/enhancer coupled to the human cytomegalovirus immediate-early gene enhancer, resulting in expression of tamoxifen-inducible Cre-ERT in most cell types. To induce Cre recombinase-mediated deletion of Erbb4, eleven-week-old female and male iCAGGCre-ER^TM/Erbb4^f/f mice were intraperitoneally injected with tamoxifen (Merck, T5648; 10 mg/kg; in corn oil) daily for 5 consecutive days.
Echocardiography was performed using the Vevo F2-LAZRX (FUJIFILM VisualSonics) and UHF57x probe. Mice were anesthetized with 1.5% isoflurane (Alvira, BE-V512222). Parasternal long-axis B-mode images and M-mode images were obtained and analyzed using VevoLAB software (FUJIFILM VisualSonics, Version 5.7.1). For the AngII experiments, measurements were obtained through analysis of the short-axis M-mode. For the MI experiments, measurements were obtained through analysis of the parasternal long-axis B-mode, of which the area and end-volume of the left ventricular cavity in diastole and systole were determined by tracing the endocardial border. Acquisitions, measurements and analyses were performed blinded.
Supplementary Table 2. Echocardiographic parameters. Echocardiographic parameters obtained through the analysis of the M-mode short-axis views. (a) Male and (b) female wild-type mice treated […]
mice in EF-1 group). (c) Male wild-type mice treated with AngII and NA-1 (n=5 male mice in Ctrl and AngII/Veh group, n=4 male mice in AngII/NA -1 group). (d) Comparison between wild-type and Erbb4-null mice (n=10 male and female wild -type mice and n=6 male and female Erbb4-null mice). (e) Male […]
Echocardiographic parameters were measured weekly
(indicated by ‘T’). All data are presented as mean (value of individual mice) ± SD, two-tailed unpaired […]
1 groups. Source data are provided as a Source Data file. AngII, angiotensin II; ANOVA, analysis of variance; Ctrl, control; DOX, doxorubicin; EF, ejection fraction; ERBB4, erythroblastic leukemia viral oncogene homolog 4; FS, fractional shortening; IVSd, interventricular septum thickness in diastole; IVSs, interventricular septum thickness in systole; LVIDd, left ventricular internal diameter in diastole; LVIDs, left ventricular internal diameter in systole; LVPWd, left ventricular posterior wall thickness in diastole; LVPWs, left ventricular posterior wall thickness in systole; MI, myocardial infarction; NA, non-activating pharmacophore-containing compound; SD, standard variation; Veh, vehicle.

[1] = Male and female Erbb4-null mice
[2] = male and female Erbb4-null mice, mean ± SD

For `O=C(NC1CC1)C(Sc1nc2ccccc2c(=O)n1C1CCCC1)c1ccccc1` (centres unmarked) [EF-1], the FS [1] was 5.8 ± 3.5%, the IVSd [1] was 1.0 ± 0.3 mm and the IVSs [1] was 1.2 ± 0.5 mm. It also gave an LVIDd [1] of 5.8 ± 0.3 mm, an LVIDs [1] of 5.5 ± 0.5 mm and an LVPWd [1] of 1.0 ± 0.4 mm. The LVPWs [1] was 1.1 ± 0.4 mm, the FS [2] was 5.8 ± 3.5% and the IVSd [2] was 1.0 ± 0.3 mm. It also gave an IVSs [2] of 1.2 ± 0.5 mm, an LVIDd [2] of 5.8 ± 0.3 mm and an LVIDs [2] of 5.5 ± 0.5 mm. The LVPWd [2] was 1.0 ± 0.4 mm and the LVPWs [2] was 1.1 ± 0.4 mm.
